The values that follow come from patent US9597302B1, “Combination of dofetilide and mexiletine for the prevention and treatment of atrial fibrillation” (Heart Rhythm Solutions, Inc., priority 2015, dated 2017).

Structures are written as SMILES. Entries after “also recorded” stand apart in the source; their conditions may differ.

The conditions of data set [1]: literature refs 19-21; cited from earlier work.
Data set [2] has as its system arterially-perfused rabbit atrial wedge preparations. Nature of the data set: Induction of atrial fibrillation by programming stimulation in arterially-perfused rabbit atrial wedge preparations. As to conditions: for suppression of induction of atrial fibrillation: programming stimulation, concentrations of Table 1. The method, then:
(§1) Rabbits (New Zealand White) of either sex, weighing 2.0-2.8 kg were injected with heparin (800 U/kg) via an ear vein and anesthetized by intramuscular injection of xylazine (5 mg/kg) and intravenous administration of ketamine HCl (30-35 mg/kg, i.v.). The chest was opened via a left thoracotomy, and the heart was excised and placed in a cardioplegic solution consisting of cold (4° C.) normal Tyrode's solution.
(§2) Surgical preparation of the rabbit right or left atrial wedge was essentially similar to that in Preclinical assessment of drug-induced proarrhythmias: role of the arterially perfused rabbit left ventricular wedge preparation,^18 herein incorporated by reference. Briefly, the atrial preparation was dissected from the rabbit heart and cannulated via a coronary artery branch, either from the right coronary artery (the right atrial wedge) or the left coronary artery (the left atrial wedge), and perfused with a cardioplegic solution. Similarly, the left ventricular wedge preparation was dissected from the rabbit heart and arterially cannulated via a branch of left coronary artery. The atrial or ventricular wedge preparation was then placed in a small tissue bath and arterially perfused with Tyrode's solution containing 4.0 mM K^+ buffered with 95% O2 and 5% CO2 at a temperature of 35.7±0.1° C. The preparations were paced at basic cycle lengths (BCL) of 300, 500, 1000 and 2000 ms.
Atrial fibrillation was induced by programming stimulation using single or double extrastimuli (S2 and S3). Basic cycle lengths (S1 and S1) of 1000 and 500 ms were used for induction of atrial fibrillation.

Data set [3] relates to arterially perfused rabbit atrial wedge preparations. Kind of data set: Atrial action potential duration (APD90) in arterially perfused rabbit atrial wedge preparations. As to conditions: dofetilide 3 nM and 10 nM; BCL 1000 ms or 500 ms (FIG. 1). The method, then:
as §1
Surgical preparation of the rabbit right or left atrial wedge was essentially similar to that in Preclinical assessment of drug-induced proarrhythmias: role of the arterially perfused rabbit left ventricular wedge preparation,^18 herein incorporated by reference. […]
Two extracellular silver/silver chloride electrodes were placed on the endocardial or epicardial surfaces to record bipolar atrial electrograms (EGM). A transmural ECG was recorded in the ventricular wedge preparation using two extracellular silver/silver chloride electrodes placed in the bath 0.5 to 1.5 cm from the epicardial and endocardial surfaces of the preparation (Epi: “+” pole). Transmembrane action potential was recorded from the endocardium or epicardium using the floating glass microelectrodes. […]

Data set [4] has as its system arterially-perfused rabbit left ventricular wedge preparations. Kind of data set: Dofetilide-induced EAD, R-on-T extrasystoles and TdP in arterially-perfused rabbit left ventricular wedge preparations. The method, then: as §1, §2
Two extracellular silver/silver chloride electrodes were placed on the endocardial or epicardial surfaces to record bipolar atrial electrograms (EGM). A transmural ECG was recorded in the ventricular wedge preparation using two extracellular silver/silver chloride electrodes placed in the bath 0.5 to 1.5 cm from the epicardial and endocardial surfaces of the preparation (Epi: “+” pole). Transmembrane action potential was recorded from the endocardium or epicardium using the floating glass microelectrodes. Atrial action potential duration at 90% repolarization (APD90) was used for data analysis.
Early afterdepolarization (EAD), EAD-dependent R-on-T extrasystoles and torsade de pointes (TdP) were induced by dofetilide in the rabbit left ventricular wedges which were paced at a BCL of 2000 ms and perfused with Tyrode's solution containing 3 mM K^+, which is equivalent to hypokalemia in humans. Lower K^+ potentiated the effect of dofetilide to induced EAD, R-on-T and TdP. The K^+ concentration in Tyrode's solution remained the same when the effect of mexiletine on dofetilide-induced EAD, R-on-T and TdP was examined.

Data set [5] relates to arterially perfused rabbit atrial wedge preparations. Nature of the data set: Atrial effective refractory period (ERP) and loss of excitation in arterially perfused rabbit atrial wedge preparations. As to conditions: for atrial preparations that lost excitation, drug alone: dofetilide (10 nM) or mexiletine (30 μM) used alone; for effect on atrial ERP, drug alone: each drug alone (FIG. 2). The method, then:
as §1, §2
Atrial effective refractory period (ERP) was measured by introducing an extrastimulus (S2) repeatedly every 10 pulses (S1) at two folds of the pacing threshold. […] In the preparations that lost excitation intermittently after drug interventions, the ERP was then considered to be equal to the S1-S1 interval.

Setting [6] is: dofetilide 10 nM, BCL 2000 ms, 3 mM K+.

With `CN(CCOc1ccc(NS(C)(=O)=O)cc1)CCc1ccc(NS(C)(=O)=O)cc1` [dofetilide, N-[4-(2-{[2-(4-methanesulfonamidophenoxy)ethyl](methyl)amino}ethyl)phenyl] methanesulfonamide], the “therapeutical plasma concentration in humans” value in data set [1] was ~0.003 µM. Besides, the “Induced Atrial Fibrillation (incidence)” value in data set [2] (dofetilide 3 nM) is 3 of 6 preparations. Besides, the “effect on atrial fibrillation readily induced by single stimuli” value in data set [2] (one atrial wedge preparation, dofetilide alone 10 nM and 30 nM (FIG. 5)) was “failed to suppress induction of atrial fibrillation and premature beats; also recorded: reduced only duration and incidences of atrial fibrillation”. The “suppression of induction of atrial fibrillation” value in data set [2] is listed as “partially suppressed”. In addition, the “effect on atrial APD90” value in data set [3] was “significantly increased”. Moreover, in data set [4] (setting [6]), the “EAD (incidence)” value is reported as 7 of 7, the “R-on-T (incidence)” value is 5 of 7 and the “TdP (incidence)” value is 1 of 7. In addition, in data set [5], the “atrial preparations that lost excitation, drug alone” value is “none” and the “effect on atrial ERP, drug alone” value is listed as “mildly to moderately prolonged”.

For `Cc1cccc(C)c1OCC(C)N` (racemic) [mexiletine, (RS)-1-(2,6-dimethylphenoxy)propan-2-amine], the “therapeutical plasma concentration in humans” value in data set [1] was ~10 µM. For the same compound, the “Induced Atrial Fibrillation (incidence)” value in data set [2] (mexiletine 10 μM) is on record as 4 of 4 preparations. The “suppression of induction of atrial fibrillation” value in data set [2] was “not”. Moreover, in data set [4] (after removal of mexiletine EAD, R-on-T reoccurred), the “reversibility of the effect on dofetilide-induced EAD, R-on-T and TdP” value is “washable”. For the same compound, the “effect on EAD, R-on-T and TdP induced by 10 nM dofetilide” value in data set [4] (mexiletine 10 μM, low (3 mM) K+ (FIG. 6)) is reported as “effectively abolished”. In data set [5], the “atrial preparations that lost excitation, drug alone” value is reported as “none” and the “effect on atrial ERP, drug alone” value is listed as “mildly to moderately prolonged”.
